From PubChem BioAssay (NCI) come the findings set out here.

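Grown in 96-well plates, cells were treated for 48 hours with each compound at five concentrations. Insufficient inhibition: endpoint recorded as highest concentration tested. TGI is the concentration that stops growth completely.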

As usually defined, the TGI is the concentration giving total growth inhibition. The low end stands for greater sensitivity of the cells, the high end for lower sensitivity of the cells.

Common to all, as to assay: DTP human tumour cell line panel, 48 h
Experiment [1] has as its system TK-10 renal.
In experiment [2] the test system is MALME-3M melanoma.
Experiment [3] has as its system UACC-257 melanoma.
Experiment [4] deals with UACC-62 melanoma.
Experiment [5] deals with KM12 colon.
Experiment [6] deals with IGROV1 ovarian.
The subject of experiment [7] is LOX IMVI melanoma.
Experiment [8] relates to T-47D breast.
The subject of experiment [9] is BT-549 breast.
Experiment [10] deals with HOP-62 NSCLC.
Experiment [11] has as its system COLO 205 colon.
Experiment [12] has as its system SK-OV-3 ovarian.
Experiment [13] deals with SR leukemia.

As to `O=C1c2cccnc2S(=O)(=O)N1c1ccc(Br)cc1`, the TGI in [1], in [2], in [3], in [4], in [5] and in [6] was more than 100 µM in each case. The TGI in [7], in [8], in experiment [9], in experiment [10], in experiment [11] and in [12] was more than 100 µM in each case. The compound further had a TGI in experiment [13] of more than 100 µM.

Take `CC(=O)N1N=C(c2ccccc2)NC(=O)C1c1cc(C)c(O)c(C)c1` (configuration not stated): the TGI in experiment [1] was 38.2 µM; in experiment [2], 38.1 µM; in experiment [3], 96.7 µM; in [4], 40 µM; in experiment [5], more than 100 µM; in experiment [6], 72.7 µM. Besides, the TGI is more than 100 µM in experiment [7]; 42 µM in experiment [8]; 54.1 µM in experiment [9]; 35.3 µM in experiment [10]; more than 100 µM in [11]; 34.3 µM in experiment [12]. For the same compound, the TGI in experiment [13] is more than 100 µM.

Take `C[C@]12CCC(=O)C=C1CC[C@@H]1[C@@H]2CC[C@]2(C)C(=O)/C(=C/c3ccc([N+](=O)[O-])cc3)C[C@@H]12`: the TGI in [1] was more than 100 µM; in [2], more than 100 µM; in experiment [3], more than 100 µM; in experiment [4], 46.2 µM; in experiment [5] it was more than 100 µM; in [6] it was more than 100 µM. The TGI in experiment [7], in [8], in experiment [9], in experiment [10], in experiment [11] and in [12] was more than 100 µM throughout. In addition, the TGI in [13] is more than 100 µM.

For `CCCCCCCCCCCCCOCCOCCOCCCCC(O)CCCCCCCCCC1=C[C@H](C)OC1=O` (some centres not stated), the TGI in experiment [1] is 22.5 µM; in experiment [3] it was 37.7 µM; in experiment [4] it was 54 µM; in experiment [5] it was more than 100 µM; in [6], 37.6 µM; in experiment [7] it was 42.6 µM. Moreover, the TGI was more than 100 µM in experiment [8]; 27.9 µM in experiment [9]; more than 100 µM in [10]; 52.3 µM in experiment [11]; more than 100 µM in experiment [12]; 34.2 µM in experiment [13].

Consider `COc1ccc(OC)c([N+](=O)[O-])c1-c1nc2sc(Cl)cn2c1/C=N/N=C(N)N`, for which the TGI in experiment [1] was 48.7 µM; in [2], 42.4 µM; in experiment [3] it was 37.5 µM; in experiment [4] it was 29.5 µM; in experiment [5] it was 46.3 µM; in experiment [6], 28.8 µM. Further, the TGI in experiment [7] was more than 100 µM; in experiment [8], 42.7 µM; in [9], 38.7 µM; in experiment [10] it was more than 100 µM; in [11], more than 100 µM; in experiment [13], 34.7 µM.

In the case of `CCOC(=O)Cn1nnc2ccc(Nc3nc4ccccc4nc3C(=O)OCC)cc21`, the TGI in experiment [1], in experiment [2], in experiment [3], in [4], in experiment [5] and in [6] was more than 100 µM in each case. Besides, the TGI in experiment [7], in experiment [8], in [9], in [10], in experiment [11] and in [12] was more than 100 µM each time. The same compound gave a TGI in experiment [13] of more than 100 µM.

Turning to `COc1ccc(C2c3cc4c(cc3OC(N3CCOCC3)C2C)OCO4)cc1OC` (configuration not stated), the TGI was more than 88.8 µM in experiment [1]; more than 100 µM in experiment [2]; more than 100 µM in [3]; more than 82.9 µM in experiment [4]; more than 100 µM in experiment [5]; more than 100 µM in experiment [6]. Further, the TGI in experiment [7] was more than 93.7 µM; in experiment [8], more than 100 µM; in experiment [9] it was more than 100 µM; in [10], 72.6 µM; in experiment [11], more than 44.2 µM; in experiment [12], 87.7 µM. In experiment [13], this compound yielded a TGI of more than 100 µM.

Turning to `O=[N+]([O-])C1=Cc2c(O)ccc(O)c2C2OC=CC12` (configuration not stated), the TGI in experiment [1] was determined as 30.3 µM; in [3], 29.9 µM; in experiment [4] it was 15.9 µM; in experiment [5], 32.5 µM; in experiment [6], 45.4 µM; in experiment [7], 42.6 µM. In addition, the TGI in experiment [8] was more than 71.9 µM; in experiment [9], 27.9 µM; in experiment [10], 35.2 µM; in experiment [11], more than 63.8 µM; in experiment [12], more than 100 µM; in experiment [13], more than 74.5 µM.

Take `COP(=O)(OC)[C@@](O)(c1ccccc1)[C@@H](O)[C@H](O)c1ccccc1`: the TGI in experiment [1], in experiment [2], in [3], in experiment [4], in experiment [5] and in experiment [6] was more than 100 µM throughout. Besides, the TGI in [7] was 56.4 µM; in experiment [8], more than 100 µM; in experiment [9], more than 100 µM; in [11], more than 100 µM; in experiment [12] it was more than 100 µM; in experiment [13] it was more than 100 µM.

Turning to `CCCCOc1ccc(/C=C/C2=[N+](CCO)CCO2)cc1`, the TGI in experiment [1], in [2], in experiment [3], in [4], in experiment [5] and in [6] was more than 100 µM throughout. The TGI in experiment [8] is 82.8 µM; in [9] it was more than 100 µM; in experiment [10], more than 100 µM; in experiment [11], 54.3 µM; in experiment [12], more than 100 µM; in experiment [13], 62.7 µM.

`CCN(CC)P(=O)(c1ccc2c(c1)OCCOCCOCCOCCO2)N(CC)CC`: the TGI in experiment [1], in experiment [2], in experiment [4], in [5], in experiment [6] and in experiment [7] was more than 100 µM each time. The TGI in [8], in [9], in experiment [10], in experiment [11], in experiment [12] and in experiment [13] was more than 100 µM in each case.
